In general, LD50 refers to the dose at which mortality reaches 50%. A lower LD50 goes with a more toxic substance.

The values that follow come from patent US4029807A (priority 1975, dated 1977).

The test system of data set [1] is serotonin in the brains of rats. The note with it: administered at the same time as monoamino-oxydase inhibitors; cited from earlier work.
Data set [2] relates to antidepressive effects of the MAO inhibitors. The note with it: in vivo; cited from earlier work.
The subject of data set [3] is depressive patient. The settings on record: total dose 150 mg, cited from earlier work; for response of depressive symptoms: amitryptiline with anticonvulsivant therapy for two months, 5-hydroxytryptophan 5 days, L-DOPA previously.
The subject of data set [4] is depressed patients. The note with it: 10-50 mg intravenously, with a monoamino-oxydase inhibitor; cited from earlier work.
The conditions of data set [5]: clinical use, as described; cited from earlier work.
Data set [6] relates to MAO. The note with it: non-hydrazinic MAO inhibitor; cited from earlier work.
Data set [7] relates to I.C.R. Swiss albino mice. Description: Acute toxicity, intraperitoneal. Type of data set: in vivo. The procedure:
(§1) The studies of acute toxicity have been made with I.C.R. Swiss albino mice of both sexes. We express the toxicity date with the parameters of lethal dose 16 (LD16), lethal dose 50 (LD50) and lethal dose 84 (LD84), in mg/kg. of weight. The substance was administered intraperitoneally.

Data set [8] in a line: Acute toxicity, intraperitoneal. It is filed as in vivo, I.C.R. Swiss albino mice. The settings on record: mouse, in vivo, ip; mice of both sexes, intraperitoneal. The procedure:
as §1

Data set [9] has as its system female mice. Description: Irwin's schema (behavioural symptomatology). The note with it: for symptomatology of our product observed with comparator: L-glutamic acid and L-5 hydroxytryptophan: separate administration at equimolecular doses. It is filed as in vivo.
The subject of data set [10] is cerebral serotonin. The note with it: statement without data; cited from earlier work.
Data set [11] deals with uptake I (presynaptic membrane). The settings on record: presynaptic membrane level; cited from earlier work.
Data set [12] can be described thus: Clinical tolerability / adverse effects. The note with it: view of the Applicant.
A short description of data set [13]: Analgesic activity, chemical analgesia. Type of data set: in vivo.
Data set [14] concerns cerebral serotonin. The data set can be described thus: Cerebral serotonin level (inferred from symptomatology of the animals injected). It is filed as in vivo. The note with it: compared with sole administration of L-5-hydroxytryptophan.
Data set [15] can be described thus: Analgesic activity, thermal analgesia (hot plate at 55° C.). Type of data set: in vivo.
Data set [16] relates to responses to serotonin (rat's isolated uterus). Description: Antiserotoninic activity, rat's isolated uterus. The note with it: 40 mcg/ml.
Data set [17] deals with patients affected by Parkinson's disease. The settings on record: human, in vivo; cited from earlier work.
For data set [18], the system named is patients in depressive phase. The note with it: 5 weeks, tablets 20, 50 and 100 mg three times a day; cited from earlier work.
The test system of data set [19] is serotonin in the brain. The note with it: dogs; cited from earlier work.
The conditions of data set [20]: cited from earlier work.
The mark [21] stands for this setting: mice of both sexes, intraperitoneal.

Regarding `N[C@@H](Cc1c[nH]c2ccccc12)C(=O)O` [tryptophan], the “increase in brain serotonin with monoamino-oxydase inhibitors” value in data set [1] is reported as “the increase becomes higher”. The “potentiation of the antidepressive effects of the MAO inhibitors” value in data set [2] is “potentiation of the antidepressive effects of the MAO inhibitors has been observed”.

For `N[C@@H](Cc1ccc(O)c(O)c1)C(=O)O` [L-DOPA], the “response of depressive symptoms” value in data set [3] is listed as “without obtaining any result”.

Turning to `NC(Cc1c[nH]c2ccc(O)cc12)C(=O)O` (racemic) [DL-5-OH-tryptophan], the improvement of depression entry in data set [4] is given as “improvement of depression in one day”.

Consider `N[C@@H]1C[C@H]1c1ccccc1` (relative stereo) [Tranilcypromine], for which the “adverse effects and secondary reactions” value in data set [5] is “great amount of adverse effects and secondary reactions”. For the same compound, the “inhibition of MAO” value in data set [6] is reported as “powerful inhibitor of non-hydrazinic MAO”. In [7] (setting [21]), the LD16 is on record as 7.3 mg/kg and the LD84 was found to be 18 mg/kg. Also, in data set [8], the LD50 turned out to be 11.3 mg/kg. In addition, in data set [9], the “symptomatology of our product observed with comparator” value (shortened to “symptomatology”) is “Neither is this symptomatology observed”. For the same compound, in [10], the “cerebral serotonin raising action compared with our product” value is given as “very inferior to our product”.

In the case of `CN(C)CCCN1c2ccccc2CCc2ccccc21` [Imipramine], the “incorporation blockage (uptake I)” value in data set [11] is recorded as “produces an incorporation blockage (uptake I) on the presynaptic membrane level”. For the same compound, in data set [7] (setting [21]), the LD16 is reported as 33.3 mg/kg and the LD84 is given as 80 mg/kg.

With “5-hydroxytryptophan glutamate [the product obtained by this method]”, in [12], the tolerability entry is “great tolerability”.

Consider `CN(C)CCC=C1c2ccccc2CCc2ccccc21` [amitryptiline], for which, in [3], the “response of depressive symptoms” value is reported as “did not produce any positive response”.

For the compound `N[C@@H](CCC(=O)O)C(=O)O` [L-glutamic acid], in [9], the “symptomatology” value is listed as “not observed”.

In the case of “L-5 hydroxytryptophan monohydrate L-glutamate [Our product]”, the “analgesic effect compared with dextropropoxyphene” value in data set [13] (10 mg/kg oral vs dextropropoxyphene 50 mg/kg intraperitoneal, technique (chemical or thermal) not specified) is recorded as “same analgesic effect as dextropropoxyphene”. The “analgesic action, chemical analgesia” value in data set [13] (in vivo) is “significant analgesic action”. For the same compound, the “adverse effects and secondary reactions” value in data set [5] was “No interesting secondary reactions have yet been described”. Further, the “raising of cerebral serotonin levels” value in data set [14] is reported as “raises the levels of cerebral serotonin, in a greater way than the sole administration of L-5-hydroxytryptophan”. For the same compound, the “analgesic action, hot plate” value in [15] is on record as “significant analgesic action”. Moreover, in data set [7] (from the foregoing table), the “times less toxic than imipramine” value stood at 6 times and the “times less toxic than tranilcypromine” value is listed as 300 times. Also, in data set [7] (setting [21]), the LD16 was 260.5 mg/kg, the LD50 came to 323 mg/kg and the LD84 is on record as 401.4 mg/kg. For the same compound, the “inhibition of the responses to serotonin” value in data set [16] was found to be 36%. In [9] (10 mg/kg orally), the duration of symptoms is no less than 120 min and the “onset of symptoms after administration” value was 15 min. Further, the “pharmacological activity compared with each ingredient separately” value in data set [9] (equimolecular doses) was “superior to that of each ingredient separately”. The “symptoms (Irwin's schema)” value in data set [9] (our product 10 mg/kg orally, female mice 28±2 g) was “increase in the state of alertness, a reaction to cleanliness and an increase in spontaneous activity, in addition to restlessness and irritability”.

Consider `N[C@@H](Cc1c[nH]c2ccc(O)cc12)C(=O)O` [L-5-hydroxytryptophan], for which, in data set [17], the anti-tremor effect entry was “visible anti-tremor effect”; the “antidepressive action in Parkinson's disease patients” value was “intense antidepressive action with improvement of the affective field, of the psychomotor impulse and activation of personal initiative”. Moreover, in [9], the “symptomatology” value is on record as “not observed”. Moreover, in data set [18], the “remission of depressive symptoms” value is given as “symptoms remitting so rapidly that even the patients themselves were impressed”.

Consider `N[C@@H](Cc1c[nH]c2ccc(O)cc12)C(=O)O` [5-hydroxytryptophan], for which the “time to disappearance of the depressive symptoms after treatment” value in [3] (5 days) was “two”. In [3], the “response of depressive symptoms” value is on record as “rapid improvement in the state of mind”. Besides, in data set [19], the “raising of the level of serotonin in the brain” value is given as 10 times. For the same compound, the “potentiation of the antidepressive effects of the MAO inhibitors” value in data set [2] was “potentiation of the antidepressive effects of the MAO inhibitors has been observed”. Besides, the tissue penetration entry in data set [20] (animals) is reported as “rapidly penetrates most tissues”. Moreover, the conversion into serotonin result in [20] (if there is decarboxylase) is reported as “converted into serotonin”.
